Measured values as given in patent US20230416258A1, “BENZ[…], AND PREPARATION METHOD THEREFOR AND USE THEREOF” (CHINA PHARMACEUTICAL UNIVERSITY, priority 2020, published 2023).

What was measured:
hCMEC/D3 cells = experiment: Rate of drug passing through in vitro blood-brain barrier (Transwell); type: in vitro ADME; settings: hCMEC/D3 monolayer, compound 0.1 mg/mL
Experimental: A Transwell device (pore size: 5.0 μm) was placed in a 24-well cell culture well; then hCMEC/D3 cells at 1×10^5 cells/mL were transferred to the upper microwells of Transwell at 150 μL/well, and cell culture medium was added to the lower microwells. After the bottom was covered by a single layer of the cells, the medium in the wells was replaced with EBM-2 complete medium containing 1% FBS, and the cells were cultured in a CO2 incubator for 10 days until a fully dense single layer of the cells was formed. When a fully dense single layer of the cells was formed, the compound at 0.1 mg/mL was added to the lower medium, and after 5 min, the concentration of the compound in the upper medium was measured to calculate the permeability:
Pcompound%=Cupper compound/Clower compound×100%

KM mice = experiment: Test for drug-induced disappearance of righting reflex in mice; type: in vivo; settings: single rapid bolus via tail vein
Procedure, shortened: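 Female KM mice (18–25 g), randomly grouped, given a single rapid bolus via tail vein. Latency (administration to loss of righting reflex) and duration (loss to recovery) recorded.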

[1] = tested on: GABA-activated Cl− current (GABAA receptor) in HEK 293T cells; experiment: Effect of drugs on GABA-activated current in cells by cell patch clamp; type: cell-based; settings: for EC50: read-out: Positive enhancement EC50 (μM) for 2 μM GABA-induced current, −60 mV; for Enhancement percentage Emax for 2 μM GABA current (within 3-30 μM): −60 mV, corresponding concentration 20 μM
Experimental: Test compounds were dissolved at various concentrations in an extracellular buffer (140 mM NaCl, 4.7 mM KCl, 10 mM HEPES, 2 mM CaCl2), 10 mM glucose, 1 mM MgCl2, pH 7.4). HEK 293T cells were seeded on glass coverslips and cultured in DMEM media at 37° C. with 5% CO2 for 24 h. GABA Cl^− current was subjected to whole cell recording using an HEKA EPC 10USB patch clamp amplifier. 2 μM GABA was used for exciting Cl^− current, with the membrane potential clamped at −60 mV. The cells were treated with the test compound and 2 μM GABA simultaneously, and the induction effect on and Emax of Cl^− current in the same cell were recorded.
Maximum enhancement percentage Emax for 2 μM GABA current and corresponding concentration (μM): 100% for normal humans. The greater the percentage, the lower the corresponding concentration, and the greater the depth of anesthesia.

SD rats [2] = experiment: Test for drug-induced disappearance of righting reflex in rats; type: in vivo; settings: single rapid bolus via tail vein
Description: In anesthetic drug experiments, latency generally refers to the time from the start of administration to the loss of consciousness of the subject. The shorter latency is preferred, indicating a rapid onset of action after administration. The duration of anesthesia generally refers to the duration of time from the loss of consciousness to the restoration of consciousness of the subject. The duration of the drug will vary from animal model to animal species. Too long anesthesia may produce adverse cardiovascular and respiratory responses, such as adverse neurological effects to the subject, including sleepiness and dizziness; meanwhile, too short duration of anesthesia may affect the anesthesia effect, causing problems such as increase of anesthesia dosage during the operation.
SD rats (male, 200-280 g) were randomly grouped and subjected to a single administration by rapid bolus via the tail vein. The latency and duration of righting reflex in the rats were recorded.

SD rats [3] = experiment: Induction of anesthesia in rats by continuous infusion of drug for 20 min; type: in vivo; settings: initial dose 20 mg/kg bolus, maintenance dose 0.2 (mg/kg)/min for 20 min, after infusion completed
Experimental: SD rats (male, 200-280 g) were randomly grouped and subjected to administration of an initial dose by rapid bolus via the tail vein, followed by a continuous infusion with a maintenance dose for 20 min.
After the infusion was completed, the duration of the righting reflex and the time from wake-up to recovery in rats were recorded.

With COC(=O)CC[C@@H]1N=C(c2ccccc2F)c2cc(Cl)ccc2-n2c(S)nnc21 [Compound 1, methyl (S)-3-(8-chloro-6-(2-fluorophenyl)-1-mercapto-4H-benzo[f][1,2,4]triazolo[4,3-a][1,4]diazepin-4-yl)propionate] the “In vitro blood-brain barrier, compound permeability at 5 min” value (“In vitro blood-brain barrier” below) (hCMEC/D3 cells) was 72.2%, the Duration (KM mice; 30 mg/kg) was 3.51 min and the Latency (KM mice; 30 mg/kg) was 0.26 min. For the same compound, the EC50 [1] was 0.85 µM, the “Enhancement percentage Emax for 2 μM GABA current (within 3-30 μM)” value (from here on “Enhancement percentage Emax”) [1] was 216% (20 μM) and the Latency (SD rats [2]) was 0.25 min. The Duration of anesthesia (SD rats [3]) was 2.82 min and the “Time from wake-up to recovery” value (SD rats [3]) was 11.2 min.

With COC(=O)CC[C@@H]1N=C(c2ccccc2F)c2cc([N+](=O)[O-])ccc2-n2c(SC)nnc21 [Compound 10, methyl (S)-3-(8-nitro-6-(2-fluorophenyl)-1-(methylthio)-4H-benzo[f][1,2,4]triazolo[4,3-a][1,4]diazepin-4-yl)propionate] the “In vitro blood-brain barrier” value (hCMEC/D3 cells) was 58.7%, the Duration (KM mice; 30 mg/kg) was 3.15 min and the Latency (KM mice; 30 mg/kg) was 0.76 min. For the same compound, the EC50 [1] was 0.67 µM, the “Enhancement percentage Emax” value [1] was 202% (20 μM) and the Latency (SD rats [2]) was 0.32 min. The Duration of anesthesia (SD rats [3]) was 5.35 min and the “Time from wake-up to recovery” value (SD rats [3]) was 13.6 min.

CCSc1nnc2n1-c1ccc([N+](=O)[O-])cc1C(c1ccccc1F)=N[C@H]2CCC(=O)OC [Compound 13, methyl (S)-3-(8-nitro-6-(2-fluorophenyl)-1-(ethylthio)-4H-benzo[f][1,2,4]triazolo[4,3-a][1,4]diazepin-4-yl)propionate] was tested, and the “In vitro blood-brain barrier” value (hCMEC/D3 cells) was 81.6%, the Duration (KM mice; 30 mg/kg) was 2.87 min and the Latency (KM mice; 30 mg/kg) was 0.23 min. The EC50 [1] was 0.58 µM, the “Enhancement percentage Emax” value [1] was 246% (20 μM) and the Latency (SD rats [2]) was 0.58 min. The Duration of anesthesia (SD rats [3]) was 5.22 min and the “Time from wake-up to recovery” value (SD rats [3]) was 11.4 min.

In the case of COC(=O)CC[C@@H]1N=C(c2ccccc2Cl)c2cc(Cl)ccc2-n2c(SC)nnc21 [Compound 23, methyl (S)-3-(8-chloro-6-(2-chlorophenyl)-1-(methylthio)-4H-benzo[f][1,2,4]triazolo[4,3-a][1,4]diazepin-4-yl)propionate], the “In vitro blood-brain barrier” value (hCMEC/D3 cells) is reported as 65.3%, the Duration (KM mice; 60 mg/kg) is reported as 8.46 min and the Latency (KM mice; 60 mg/kg) is reported as 0.25 min. It also gave a Duration (KM mice; 100 mg/kg) of 14.6 min, a Latency (KM mice; 100 mg/kg) of 0.16 min and an EC50 [1] of 0.52 µM. The “Enhancement percentage Emax” value [1] was 278% (20 μM), the Latency (SD rats [2]) was 0.36 min and the Duration of anesthesia (SD rats [3]) was 7.22 min. For the same compound, the “Time from wake-up to recovery” value (SD rats [3]) was 13.2 min.

For COC(=O)CC[C@@H]1N=C(c2ccccc2Cl)c2cc(Br)ccc2-n2c(SC)nnc21 [Compound 24, methyl (S)-3-(8-bromo-6-(2-chlorophenyl)-1-(methylthio)-4H-benzo[f][1,2,4]triazolo[4,3-a][1,4]diazepin-4-yl)propionate], the “In vitro blood-brain barrier” value (hCMEC/D3 cells) was 73.4%, the Duration (KM mice; 60 mg/kg) was 6.83 min and the Latency (KM mice; 60 mg/kg) was 0.24 min. The EC50 [1] was 0.48 µM, the “Enhancement percentage Emax” value [1] was 282% (20 μM) and the Latency (SD rats [2]) was 0.28 min. The Duration of anesthesia (SD rats [3]) was 15.6 min and the “Time from wake-up to recovery” value (SD rats [3]) was 22.3 min.

COC(=O)CC[C@@H]1N=C(c2ccccc2Cl)c2cc([N+](=O)[O-])ccc2-n2c(SC)nnc21 [Compound 25, methyl (S)-3-(8-nitro-6-(2-chlorophenyl)-1-(methylthio)-4H-benzo[f][1,2,4]triazolo[4,3-a][1,4]diazepin-4-yl)propionate] was tested, and the “In vitro blood-brain barrier” value (hCMEC/D3 cells) was 81.5%, the Duration (KM mice; 60 mg/kg) was 5.89 min and the Latency (KM mice; 60 mg/kg) was 0.31 min. For the same compound, the EC50 [1] was 0.64 µM, the “Enhancement percentage Emax” value [1] was 242% (20 μM) and the Latency (SD rats [2]) was 0.45 min. For the same compound, the Duration of anesthesia (SD rats [3]) was 7.35 min and the “Time from wake-up to recovery” value (SD rats [3]) was 10.2 min.

CCSc1nnc2n1-c1ccc(Cl)cc1C(c1ccccc1Cl)=N[C@H]2CCC(=O)OC [Compound 26, methyl (S)-3-(8-chloro-6-(2-chlorophenyl)-1-(ethylthio)-4H-benzo[f][1,2,4]triazolo[4,3-a][1,4]diazepin-4-yl)propionate] was tested, and the “In vitro blood-brain barrier” value (hCMEC/D3 cells) was 52.8%, the Duration (KM mice; 30 mg/kg) was 3.57 min and the Latency (KM mice; 30 mg/kg) was 1.5 min. For the same compound, the Duration (KM mice; 60 mg/kg) was 8.06 min, the Latency (KM mice; 60 mg/kg) was 0.18 min and the EC50 [1] was 0.71 µM. For the same compound, the “Enhancement percentage Emax” value [1] was 249% (20 μM), the Latency (SD rats [2]) was 0.36 min and the Duration of anesthesia (SD rats [3]) was 8.22 min. The “Time from wake-up to recovery” value (SD rats [3]) was 9.46 min.

With CCCSc1nnc2n1-c1ccc(Cl)cc1C(c1ccccc1Cl)=N[C@H]2CCC(=O)OC [Compound 29, methyl (S)-3-(8-chloro-6-(2-chlorophenyl)-1-(propylthio)-4H-benzo[f][1,2,4]triazolo[4,3-a][1,4]diazepin-4-yl)propionate] the “In vitro blood-brain barrier” value (hCMEC/D3 cells) was 77.6%, the Duration (KM mice; 30 mg/kg) was 9.25 min and the Latency (KM mice; 30 mg/kg) was 0.57 min. The EC50 [1] was 0.74 µM, the “Enhancement percentage Emax” value [1] was 251% (20 μM) and the Latency (SD rats [2]) was 0.86 min. For the same compound, the Duration of anesthesia (SD rats [3]) was 9.18 min and the “Time from wake-up to recovery” value (SD rats [3]) was 13.6 min.

For COC(=O)CC[C@@H]1N=C(c2ccccc2Cl)c2cc([N+](=O)[O-])ccc2-n2c(SCCO)nnc21 [Compound 34, methyl (S)-3-(8-nitro-6-(2-chlorophenyl)-1-((2-hydroxyethyl)thio)-4H-benzo[f][1,2,4]triazolo[4,3-a][1,4]diazepin-4-yl)propionate], the “In vitro blood-brain barrier” value (hCMEC/D3 cells) was 85.6%, the Duration (KM mice; 30 mg/kg) was 21.9 min and the Latency (KM mice; 30 mg/kg) was 0.3 min. For the same compound, the EC50 [1] was 0.38 µM, the “Enhancement percentage Emax” value [1] was 302% (20 μM) and the Latency (SD rats [2]) was 0.22 min. The Duration of anesthesia (SD rats [3]) was 48.2 min and the “Time from wake-up to recovery” value (SD rats [3]) was 35.6 min.

Compound COC(=O)CC[C@@H]1N=C(c2ccccn2)c2cc(Br)ccc2-n2c1n[nH]c2=S [Tautomer of compound 3, methyl (S)-3-(8-bromo-6-(pyridin-2-yl)-1-thio-2,4-dihydro-1H-benzo[f][1,2,4]triazolo[4,3-a][1,4]diazepin-4-yl)propionate] has a Duration (KM mice; 30 mg/kg) of 8.27 min and a Latency (KM mice; 30 mg/kg) of 0.65 min.

COC(=O)CC[C@@H]1N=C(c2ccccc2)c2ccccc2-n2c1n[nH]c2=S [Tautomer of compound 5, methyl (S)-3-(6-phenyl-1-thio-2,4-dihydro-1H-benzo[f][1,2,4]triazolo[4,3-a][1,4]diazepin-4-yl)propionate] gave a Duration (KM mice; 30 mg/kg) of 7.82 min and a Latency (KM mice; 30 mg/kg) of 0.73 min.

COC(=O)CC[C@@H]1N=C(c2ccc(F)cc2)c2ccccc2-n2c1n[nH]c2=S [Tautomer of compound 6, methyl (S)-3-(6-(4-fluorophenyl)-1-thio-2,4-dihydro-1H-benzo[f][1,2,4]triazolo[4,3-a][1,4]diazepin-4-yl)propionate] gave a Duration (KM mice; 30 mg/kg) of 8.84 min and a Latency (KM mice; 30 mg/kg) of 0.73 min.

Work on COC(=O)CC[C@@H]1N=C(c2ccccc2)c2cc(Cl)ccc2-n2c1n[nH]c2=S [Tautomer of compound 7, methyl (S)-3-(8-chloro-6-phenyl-1-thio-2,4-dihydro-1H-benzo[f][1,2,4]triazolo[4,3-a][1,4]diazepin-4-yl)propionate] yielded a Duration (KM mice; 30 mg/kg) of 9.22 min and a Latency (KM mice; 30 mg/kg) of 0.95 min.

Work on “methyl (S)-3-(8-chloro-6-(2-chlorophenyl)-1-(2-((4-methylpiperidin-2-carbonyl)ethyl)thio)-4H-benzo[f][1,2,4]triazolo[4,3-a][1,4]diazepin-4-yl)propionate [Compound 136]” yielded a Duration (KM mice; 30 mg/kg) of 17.5 min and a Latency (KM mice; 30 mg/kg) of 0.36 min.
